± gives the expanded uncertainty stated by the source.
Assay: xn = mol fraction of the nth substance listed

CCCCC [pentane] + O=C=O
Conditions	mass density [kg/m3]
312.35 K, 7770 kPa, Fluid (supercritical or subcritical phases), x2 = 0.96	475 ± 3
312.35 K, 7780 kPa, Fluid (supercritical or subcritical phases), x2 = 0.96	479 ± 3
312.35 K, 7790 kPa, Fluid (supercritical or subcritical phases), x2 = 0.96	482 ± 3
312.35 K, 7800 kPa, Fluid (supercritical or subcritical phases), x2 = 0.96	488 ± 3
312.35 K, 7810 kPa, Fluid (supercritical or subcritical phases), x2 = 0.96	491 ± 3
312.35 K, 7840 kPa, Fluid (supercritical or subcritical phases), x2 = 0.96	501 ± 3
312.35 K, 7870 kPa, Fluid (supercritical or subcritical phases), x2 = 0.96	511 ± 3
312.35 K, 7890 kPa, Fluid (supercritical or subcritical phases), x2 = 0.96	522 ± 3
312.35 K, 7920 kPa, Fluid (supercritical or subcritical phases), x2 = 0.96	532 ± 3
312.35 K, 7970 kPa, Fluid (supercritical or subcritical phases), x2 = 0.96	544 ± 3
312.35 K, 8010 kPa, Fluid (supercritical or subcritical phases), x2 = 0.96	556 ± 3
312.35 K, 8070 kPa, Fluid (supercritical or subcritical phases), x2 = 0.96	568 ± 4
312.35 K, 8150 kPa, Fluid (supercritical or subcritical phases), x2 = 0.96	581 ± 4
312.35 K, 8230 kPa, Fluid (supercritical or subcritical phases), x2 = 0.96	594 ± 4
312.35 K, 8360 kPa, Fluid (supercritical or subcritical phases), x2 = 0.96	608 ± 4
312.35 K, 8530 kPa, Fluid (supercritical or subcritical phases), x2 = 0.96	624 ± 4
312.35 K, 8740 kPa, Fluid (supercritical or subcritical phases), x2 = 0.96	639 ± 4
312.35 K, 9020 kPa, Fluid (supercritical or subcritical phases), x2 = 0.96	656 ± 4
312.35 K, 9400 kPa, Fluid (supercritical or subcritical phases), x2 = 0.96	674 ± 4
312.35 K, 9600 kPa, Fluid (supercritical or subcritical phases), x2 = 0.96	686 ± 4
315.55 K, 7940 kPa, Fluid (supercritical or subcritical phases), x2 = 0.947	466 ± 3
315.55 K, 7960 kPa, Fluid (supercritical or subcritical phases), x2 = 0.947	472 ± 3
315.55 K, 7970 kPa, Fluid (supercritical or subcritical phases), x2 = 0.947	475 ± 3
315.55 K, 8010 kPa, Fluid (supercritical or subcritical phases), x2 = 0.947	484 ± 3
315.55 K, 8040 kPa, Fluid (supercritical or subcritical phases), x2 = 0.947	492 ± 3
315.55 K, 8070 kPa, Fluid (supercritical or subcritical phases), x2 = 0.947	502 ± 3
315.55 K, 8110 kPa, Fluid (supercritical or subcritical phases), x2 = 0.947	512 ± 3
315.55 K, 8150 kPa, Fluid (supercritical or subcritical phases), x2 = 0.947	522 ± 3
315.55 K, 8200 kPa, Fluid (supercritical or subcritical phases), x2 = 0.947	532 ± 3
315.55 K, 8250 kPa, Fluid (supercritical or subcritical phases), x2 = 0.947	543 ± 3
315.55 K, 8320 kPa, Fluid (supercritical or subcritical phases), x2 = 0.947	555 ± 3
315.55 K, 8390 kPa, Fluid (supercritical or subcritical phases), x2 = 0.947	566 ± 4
315.55 K, 8490 kPa, Fluid (supercritical or subcritical phases), x2 = 0.947	578 ± 4
315.55 K, 8610 kPa, Fluid (supercritical or subcritical phases), x2 = 0.947	592 ± 4
315.55 K, 8760 kPa, Fluid (supercritical or subcritical phases), x2 = 0.947	605 ± 4
315.55 K, 8970 kPa, Fluid (supercritical or subcritical phases), x2 = 0.947	620 ± 4
315.55 K, 9200 kPa, Fluid (supercritical or subcritical phases), x2 = 0.947	635 ± 4
315.55 K, 9520 kPa, Fluid (supercritical or subcritical phases), x2 = 0.947	650 ± 4
315.55 K, 9940 kPa, Fluid (supercritical or subcritical phases), x2 = 0.947	666 ± 4
315.55 K, 10200 kPa, Fluid (supercritical or subcritical phases), x2 = 0.947	676 ± 4
315.55 K, 10490 kPa, Fluid (supercritical or subcritical phases), x2 = 0.947	684 ± 4
315.55 K, 10840 kPa, Fluid (supercritical or subcritical phases), x2 = 0.947	695 ± 4
315.55 K, 11480 kPa, Fluid (supercritical or subcritical phases), x2 = 0.947	711 ± 4
318.15 K, 7980 kPa, Fluid (supercritical or subcritical phases), x2 = 0.901	590 ± 4
318.15 K, 8070 kPa, Fluid (supercritical or subcritical phases), x2 = 0.901	594 ± 4
318.15 K, 8170 kPa, Fluid (supercritical or subcritical phases), x2 = 0.901	600 ± 4
318.15 K, 8280 kPa, Fluid (supercritical or subcritical phases), x2 = 0.901	606 ± 4
318.15 K, 8380 kPa, Fluid (supercritical or subcritical phases), x2 = 0.901	613 ± 4
318.15 K, 8520 kPa, Fluid (supercritical or subcritical phases), x2 = 0.901	619 ± 4
318.15 K, 8660 kPa, Fluid (supercritical or subcritical phases), x2 = 0.901	625 ± 4
318.15 K, 8810 kPa, Fluid (supercritical or subcritical phases), x2 = 0.901	631 ± 4
318.15 K, 8980 kPa, Fluid (supercritical or subcritical phases), x2 = 0.901	638 ± 4
318.15 K, 9180 kPa, Fluid (supercritical or subcritical phases), x2 = 0.901	644 ± 4
318.15 K, 9400 kPa, Fluid (supercritical or subcritical phases), x2 = 0.901	651 ± 4
318.15 K, 9440 kPa, Fluid (supercritical or subcritical phases), x2 = 0.901	654 ± 4
318.15 K, 9550 kPa, Fluid (supercritical or subcritical phases), x2 = 0.901	656 ± 4
318.15 K, 9720 kPa, Fluid (supercritical or subcritical phases), x2 = 0.901	661 ± 4
318.15 K, 9910 kPa, Fluid (supercritical or subcritical phases), x2 = 0.901	666 ± 4
318.15 K, 10010 kPa, Fluid (supercritical or subcritical phases), x2 = 0.901	669 ± 4
318.15 K, 10130 kPa, Fluid (supercritical or subcritical phases), x2 = 0.901	670 ± 4
318.15 K, 10260 kPa, Fluid (supercritical or subcritical phases), x2 = 0.901	674 ± 4
318.15 K, 10370 kPa, Fluid (supercritical or subcritical phases), x2 = 0.901	677 ± 4
318.15 K, 10560 kPa, Fluid (supercritical or subcritical phases), x2 = 0.901	680 ± 4
318.15 K, 10680 kPa, Fluid (supercritical or subcritical phases), x2 = 0.901	683 ± 4
318.15 K, 10880 kPa, Fluid (supercritical or subcritical phases), x2 = 0.901	685 ± 4
318.15 K, 11070 kPa, Fluid (supercritical or subcritical phases), x2 = 0.901	689 ± 4
318.15 K, 11290 kPa, Fluid (supercritical or subcritical phases), x2 = 0.901	694 ± 4
318.15 K, 11490 kPa, Fluid (supercritical or subcritical phases), x2 = 0.901	697 ± 4
318.15 K, 11650 kPa, Fluid (supercritical or subcritical phases), x2 = 0.901	698 ± 4
318.15 K, 11890 kPa, Fluid (supercritical or subcritical phases), x2 = 0.901	702 ± 4
318.15 K, 12110 kPa, Fluid (supercritical or subcritical phases), x2 = 0.901	705 ± 4
318.15 K, 12380 kPa, Fluid (supercritical or subcritical phases), x2 = 0.901	710 ± 4
318.15 K, 12600 kPa, Fluid (supercritical or subcritical phases), x2 = 0.901	713 ± 4
318.15 K, 12940 kPa, Fluid (supercritical or subcritical phases), x2 = 0.901	716 ± 4
318.15 K, 13280 kPa, Fluid (supercritical or subcritical phases), x2 = 0.901	722 ± 5
318.15 K, 13690 kPa, Fluid (supercritical or subcritical phases), x2 = 0.901	727 ± 5
318.15 K, 13870 kPa, Fluid (supercritical or subcritical phases), x2 = 0.901	728 ± 5
318.15 K, 14050 kPa, Fluid (supercritical or subcritical phases), x2 = 0.901	732 ± 5
318.15 K, 14410 kPa, Fluid (supercritical or subcritical phases), x2 = 0.901	734 ± 5
318.15 K, 14620 kPa, Fluid (supercritical or subcritical phases), x2 = 0.901	736 ± 5
318.15 K, 14900 kPa, Fluid (supercritical or subcritical phases), x2 = 0.901	738 ± 5
318.15 K, Liquid, Other PVT measurement, x2 = 0.901	585 ± 2
323.15 K, 2500 kPa, Fluid (supercritical or subcritical phases), x2 = 0.214	607 ± 4
